Measurements as given in PubChem BioAssay AID1963847 (Molecular Pharmacology Branch, DTP, NCI, 2024).

Test system: 415267-285-R-J2-PDC complex spheroid viability
Test: Anticancer human tumor 415267-285-R-J2-PDC patient-derived breast carcinoma cell line growth inhibition [POLQ]
Settings: for IC50: curve of first compound; for viability, T/C: stronger effect = lower value
How it was run: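 PDC + HUVEC + MSC complex spheroids; POLQ inhibitors ± partner drugs; top conc. at/near clinical Cmax, else 10 microM (SN-38 1 microM), half-log dilutions; 37 degrees C, 5% CO2.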

[1] = second compound 0.0316 µM, first compound 0.0316 µM
[2] = second compound 0.0316 µM, first compound 0.1 µM
[3] = second compound 0.0316 µM, first compound 0.316 µM
[4] = second compound 0.0316 µM, first compound 1 µM
[5] = second compound 0.0316 µM, first compound 3.16 µM
[6] = second compound 0.0316 µM, first compound 10 µM
[7] = second compound 0.1 µM, first compound 0.0316 µM
[8] = second compound 0.1 µM, first compound 0.1 µM
[9] = second compound 0.1 µM, first compound 0.316 µM
[10] = second compound 0.1 µM, first compound 1 µM
[11] = second compound 0.1 µM, first compound 3.16 µM
[12] = second compound 0.1 µM, first compound 10 µM
[13] = second compound 0.316 µM, first compound 0.0316 µM
[14] = second compound 0.316 µM, first compound 0.1 µM
[15] = second compound 0.316 µM, first compound 0.316 µM
[16] = second compound 0.316 µM, first compound 1 µM
[17] = second compound 0.316 µM, first compound 3.16 µM
[18] = second compound 0.316 µM, first compound 10 µM
[19] = second compound 1 µM, first compound 0.0316 µM
[20] = second compound 1 µM, first compound 0.1 µM
[21] = second compound 1 µM, first compound 0.316 µM
[22] = second compound 1 µM, first compound 1 µM
[23] = second compound 1 µM, first compound 3.16 µM
[24] = second compound 1 µM, first compound 10 µM
[25] = second compound 3.16 µM, first compound 0.0316 µM
[26] = second compound 3.16 µM, first compound 0.1 µM
[27] = second compound 3.16 µM, first compound 0.316 µM
[28] = second compound 3.16 µM, first compound 1 µM
[29] = second compound 3.16 µM, first compound 3.16 µM
[30] = second compound 3.16 µM, first compound 10 µM
[31] = second compound 10 µM, first compound 0.0316 µM
[32] = second compound 10 µM, first compound 0.1 µM
[33] = second compound 10 µM, first compound 0.316 µM
[34] = second compound 10 µM, first compound 1 µM
[35] = second compound 10 µM, first compound 3.16 µM
[36] = second compound 10 µM, first compound 10 µM
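Further: spheroids exposed to compounds for one week before readout.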
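Wherever viability, T/C is given: luminescence used as stand-in measure of viable cells; 100% = DMSO vehicle control viability.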

O=C(Nc1ccc(O)c(NS(=O)(=O)c2ccc(F)cc2)c1)c1ccc(-c2ccccc2)cc1 + Cc1cccc(N(C)C(=O)C2C(O)CCN2c2nc(C)cc(C(F)(F)F)c2C#N)c1
IC50 (second compound 0.0316 µM): > 10 µM | IC50 (second compound 0.1 µM): > 10 µM | IC50 (second compound 0.316 µM): > 10 µM | IC50 (second compound 1 µM): > 10 µM | IC50 (second compound 3.16 µM): > 10 µM | IC50 (second compound 10 µM): > 10 µM | viability, T/C [1]: 112% | viability, T/C [2]: 120% | viability, T/C [3]: 105% | viability, T/C [4]: 106% | viability, T/C [5]: 101% | viability, T/C [6]: 63.4% | viability, T/C [7]: 98.5% | viability, T/C [8]: 101% | viability, T/C [9]: 100% | viability, T/C [10]: 104% | viability, T/C [11]: 100% | viability, T/C [12]: 62.7% | viability, T/C [13]: 109% | viability, T/C [14]: 94.3% | viability, T/C [15]: 93.3% | viability, T/C [16]: 101% | viability, T/C [17]: 102% | viability, T/C [18]: 66.9% | viability, T/C [19]: 115% | viability, T/C [20]: 95.5% | viability, T/C [21]: 109% | viability, T/C [22]: 103% | viability, T/C [23]: 103% | viability, T/C [24]: 63.3% | viability, T/C [25]: 99.2% | viability, T/C [26]: 106% | viability, T/C [27]: 113% | viability, T/C [28]: 99.3% | viability, T/C [29]: 94.2% | viability, T/C [30]: 71.6% | viability, T/C [31]: 98.1% | viability, T/C [32]: 106% | viability, T/C [33]: 114% | viability, T/C [34]: 106% | viability, T/C [35]: 95.3% | viability, T/C [36]: 61.7%

COc1cc2cc(C(=O)CCC(=O)O)sc2cc1OC + Nc1ccc(C#CCN(C(=O)Cc2ncc(C(F)(F)F)cc2C(F)(F)F)c2ccc(F)cc2)nn1
IC50 (second compound 0.0316 µM): > 10 µM | IC50 (second compound 0.1 µM): > 10 µM | IC50 (second compound 0.316 µM): > 10 µM | IC50 (second compound 1 µM): > 10 µM | IC50 (second compound 3.16 µM): > 10 µM | IC50 (second compound 10 µM): > 10 µM | viability, T/C [1]: 108% | viability, T/C [2]: 95.4% | viability, T/C [3]: 93.7% | viability, T/C [4]: 97.3% | viability, T/C [5]: 93.8% | viability, T/C [6]: 97.3% | viability, T/C [7]: 111% | viability, T/C [8]: 105% | viability, T/C [9]: 94.2% | viability, T/C [10]: 98.2% | viability, T/C [11]: 92.5% | viability, T/C [12]: 95.1% | viability, T/C [13]: 111% | viability, T/C [14]: 103% | viability, T/C [15]: 91.8% | viability, T/C [16]: 89.9% | viability, T/C [17]: 98.9% | viability, T/C [18]: 85.9% | viability, T/C [19]: 103% | viability, T/C [20]: 88.9% | viability, T/C [21]: 96.6% | viability, T/C [22]: 102% | viability, T/C [23]: 96.5% | viability, T/C [24]: 91.2% | viability, T/C [25]: 105% | viability, T/C [26]: 92% | viability, T/C [27]: 101% | viability, T/C [28]: 98.9% | viability, T/C [29]: 94.3% | viability, T/C [30]: 109% | viability, T/C [31]: 101% | viability, T/C [32]: 97.4% | viability, T/C [33]: 100% | viability, T/C [34]: 106% | viability, T/C [35]: 97.9% | viability, T/C [36]: 96.5%

C#Cc1c(F)ccc2cc(O)cc(-c3ncc4c(N5CC6CCC(C5)N6)nc(OCC56CCCN5CC(F)C6)nc4c3F)c12 (stereo not drawn) + COC1C(OC(N)=O)C(O)C(Oc2ccc3c(O)c(NC(=O)c4ccc(O)c(CC=C(C)C)c4)c(=O)oc3c2C)OC1(C)C
IC50 (second compound 0.0316 µM): > 10 µM | IC50 (second compound 0.1 µM): > 10 µM | IC50 (second compound 0.316 µM): > 10 µM | IC50 (second compound 1 µM): > 10 µM | IC50 (second compound 3.16 µM): > 10 µM | IC50 (second compound 10 µM): > 10 µM | viability, T/C [1]: 101% | viability, T/C [2]: 95.3% | viability, T/C [3]: 103% | viability, T/C [4]: 95.4% | viability, T/C [5]: 97.7% | viability, T/C [6]: 101% | viability, T/C [7]: 97.6% | viability, T/C [8]: 91.9% | viability, T/C [9]: 102% | viability, T/C [10]: 103% | viability, T/C [11]: 101% | viability, T/C [12]: 110% | viability, T/C [13]: 97.7% | viability, T/C [14]: 103% | viability, T/C [15]: 104% | viability, T/C [16]: 95.3% | viability, T/C [17]: 99.3% | viability, T/C [18]: 100% | viability, T/C [19]: 84.9% | viability, T/C [20]: 92% | viability, T/C [21]: 91.2% | viability, T/C [22]: 104% | viability, T/C [23]: 102% | viability, T/C [24]: 96.7% | viability, T/C [25]: 100% | viability, T/C [26]: 111% | viability, T/C [27]: 92.1% | viability, T/C [28]: 111% | viability, T/C [29]: 94.5% | viability, T/C [30]: 91.4% | viability, T/C [31]: 95.3% | viability, T/C [32]: 105% | viability, T/C [33]: 98.4% | viability, T/C [34]: 98% | viability, T/C [35]: 91.8% | viability, T/C [36]: 103%

Nc1ccn(C2OC(CO)C(O)C2(F)F)c(=O)n1 (stereo not drawn) + COC1C(OC(N)=O)C(O)C(Oc2ccc3c(O)c(NC(=O)c4ccc(O)c(CC=C(C)C)c4)c(=O)oc3c2C)OC1(C)C
IC50 (second compound 0.0316 µM): < 0.0316 µM | IC50 (second compound 0.1 µM): < 0.0316 µM | IC50 (second compound 0.316 µM): < 0.0316 µM | IC50 (second compound 1 µM): < 0.0316 µM | IC50 (second compound 3.16 µM): < 0.0316 µM | IC50 (second compound 10 µM): < 0.0316 µM | viability, T/C [1]: 6.95% | viability, T/C [2]: 7.41% | viability, T/C [3]: 5.11% | viability, T/C [4]: 5.97% | viability, T/C [5]: 5.96% | viability, T/C [6]: 7.99% | viability, T/C [7]: 7.63% | viability, T/C [8]: 6.2% | viability, T/C [9]: 4.86% | viability, T/C [10]: 5.57% | viability, T/C [11]: 5.43% | viability, T/C [12]: 5.04% | viability, T/C [13]: 6.64% | viability, T/C [14]: 8.84% | viability, T/C [15]: 5.17% | viability, T/C [16]: 4.85% | viability, T/C [17]: 6.19% | viability, T/C [18]: 4.45% | viability, T/C [19]: 31.1% | viability, T/C [20]: 5.76% | viability, T/C [21]: 5.6% | viability, T/C [22]: 5.77% | viability, T/C [23]: 5.83% | viability, T/C [24]: 5.65% | viability, T/C [25]: 7.56% | viability, T/C [26]: 6.05% | viability, T/C [27]: 5.39% | viability, T/C [28]: 6.49% | viability, T/C [29]: 5.4% | viability, T/C [30]: 5.83% | viability, T/C [31]: 24.7% | viability, T/C [32]: 5.53% | viability, T/C [33]: 6.82% | viability, T/C [34]: 6.71% | viability, T/C [35]: 7.68% | viability, T/C [36]: 5.33%
